The values below are quoted from earlier work in patent US9339581B2, “Absorbent and absorbent article provided therewith” (UNICHARM CORPORATION, priority 2012, dated 2016).

The conditions of this data set: at 20° C.; cited from earlier work.

Consider `CCCCC(=O)CCCC` [5-nonanone], for which the vapor pressure entry is reported as “about 230 Pa”.
